According to ChEMBL document CHEMBL4020798, “Anti-inflammatory effects and corresponding mechanisms of cirsimaritin extracted from Cirsium japonicum var. maackii Maxim” (Bioorg Med Chem Lett, 2017):
≈ marks a conversion by molar mass, not a printed value. Calls of active or inactive are those of the source. No cut-off for these calls is given here.

Experiments:
[1] = biological target: T1, NF-kappa-B inhibitor alpha (Mus musculus) (UniProt Q9Z1E3); assay: Inhibition of IkappaBalpha degradation in mouse RAW264.7 cells at 5 to 10 ug/ml preincubated for 1 hr followed by LPS-stimulation for 1 hr by Western blot method; type: cell-based
T1 sequence (whole entry): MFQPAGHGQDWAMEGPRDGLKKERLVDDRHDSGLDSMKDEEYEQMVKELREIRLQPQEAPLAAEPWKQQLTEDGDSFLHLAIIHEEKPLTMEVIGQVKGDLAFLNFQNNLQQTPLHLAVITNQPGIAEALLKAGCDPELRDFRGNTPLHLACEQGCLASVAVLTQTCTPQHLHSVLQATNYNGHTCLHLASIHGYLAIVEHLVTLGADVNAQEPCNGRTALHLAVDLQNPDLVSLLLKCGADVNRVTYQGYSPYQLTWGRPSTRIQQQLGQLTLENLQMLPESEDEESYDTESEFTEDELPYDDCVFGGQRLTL

RAW264.7 [2] = assay: Downregulation of IL-6 mRNA expression levels in mouse RAW264.7 cells at 5 to 10 ug/ml preincubated for 1 hr followed by LPS-stimulation for 4 hrs by qRT-PCR method; type: functional, cell-based
RAW264.7 [3] = assay: Cytotoxicity against mouse RAW264.7 cells assessed as decrease in cell viability at 1 to 12 ug/ml pretreated for 1 hr followed by LPS stimulation for 20 hrs by CCK8/EZ-cytox assay; type: cell-based; details: raw264.7, 20 h
[4] = biological target: T2, Nitric oxide synthase, inducible (Mus musculus) (UniProt P29477); assay: Inhibition of LPS-induced iNOS expression in mouse RAW264.7 cells at 5 to 10 ug/ml pretreated for 1 hr followed by LPS stimulation for 20 hrs by immunoblotting method; type: cell-based
T2 sequence (whole entry): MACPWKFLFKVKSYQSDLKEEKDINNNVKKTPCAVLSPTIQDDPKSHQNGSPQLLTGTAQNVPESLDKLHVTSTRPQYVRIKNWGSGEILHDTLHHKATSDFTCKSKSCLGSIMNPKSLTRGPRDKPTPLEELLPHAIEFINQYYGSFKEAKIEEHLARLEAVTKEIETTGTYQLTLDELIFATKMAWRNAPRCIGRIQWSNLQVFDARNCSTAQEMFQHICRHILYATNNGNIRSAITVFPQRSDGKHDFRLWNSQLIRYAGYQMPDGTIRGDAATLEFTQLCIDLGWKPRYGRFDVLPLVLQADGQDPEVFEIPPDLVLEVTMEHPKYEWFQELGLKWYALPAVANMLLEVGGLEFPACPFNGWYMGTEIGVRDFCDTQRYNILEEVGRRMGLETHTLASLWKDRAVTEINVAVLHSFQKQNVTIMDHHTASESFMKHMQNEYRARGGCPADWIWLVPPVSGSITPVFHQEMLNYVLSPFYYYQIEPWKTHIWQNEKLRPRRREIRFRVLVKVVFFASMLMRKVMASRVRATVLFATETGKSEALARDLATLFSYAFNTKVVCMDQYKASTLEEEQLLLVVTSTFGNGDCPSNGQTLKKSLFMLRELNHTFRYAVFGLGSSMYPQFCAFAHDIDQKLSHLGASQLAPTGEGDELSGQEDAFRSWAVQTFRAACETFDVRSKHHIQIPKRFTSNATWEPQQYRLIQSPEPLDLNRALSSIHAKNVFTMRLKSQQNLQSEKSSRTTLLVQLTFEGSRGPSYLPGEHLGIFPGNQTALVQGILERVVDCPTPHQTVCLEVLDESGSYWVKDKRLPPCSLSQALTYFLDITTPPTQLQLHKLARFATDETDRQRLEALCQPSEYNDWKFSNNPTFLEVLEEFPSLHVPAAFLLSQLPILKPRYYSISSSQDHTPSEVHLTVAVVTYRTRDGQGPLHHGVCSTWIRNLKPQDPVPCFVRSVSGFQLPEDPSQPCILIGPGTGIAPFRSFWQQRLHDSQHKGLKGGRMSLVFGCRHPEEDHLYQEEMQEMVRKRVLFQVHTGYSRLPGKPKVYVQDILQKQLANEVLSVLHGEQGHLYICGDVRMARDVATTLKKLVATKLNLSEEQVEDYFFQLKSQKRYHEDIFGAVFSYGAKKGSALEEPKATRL

RAW264.7 [5] = assay: Antiinflammatory activity in mouse RAW264.7 cells assessed as inhibition of LPS-induced TNFalpha release preincubated for 1 hr followed by LPS addition for 20 hrs by sandwich ELISA; type: functional, cell-based
RAW264.7 [6] = assay: Antiinflammatory activity in mouse RAW264.7 cells assessed as inhibition of LPS-induced IL-6 production preincubated for 1 hr followed by LPS addition for 20 hrs by sandwich ELISA; type: functional, cell-based
RAW264.7 [7] = assay: Inhibition of LPS-induced NO production in mouse RAW264.7 cells at 2 to 10 ug/ml preincubated for 1 hr followed by LPS-stimulation measured after 20 hrs by Griess assay; type: functional, cell-based
RAW264.7 [8] = assay: Downregulation of TNFalpha mRNA expression levels in mouse RAW264.7 cells at 5 to 10 ug/ml preincubated for 1 hr followed by LPS-stimulation for 4 hrs by qRT-PCR method; type: functional, cell-based
RAW264.7 [9] = assay: Downregulation of iNOS mRNA expression levels in mouse RAW264.7 cells at 5 to 10 ug/ml preincubated for 1 hr followed by LPS-stimulation for 4 hrs by qRT-PCR method; type: functional, cell-based
[10] = biological target: T1, NF-kappa-B inhibitor alpha (Mus musculus); assay: Inhibition of IkappaBalpha phosphorylation in mouse RAW264.7 cells at 5 to 10 ug/ml preincubated for 1 hr followed by LPS-stimulation for 1 hr by Western blot method; type: cell-based
[11] = biological target: RAC-alpha serine/threonine-protein kinase (Mus musculus) (UniProt P31750); assay: Inhibition of Akt-phosphorylation in mouse RAW264.7 cells at 5 to 10 ug/ml preincubated for 1 hr followed by LPS-stimulation for 1 hr by Western blot analysis; type: cell-based
Chain of RAC-alpha serine/threonine-protein kinase (Mus musculus) (P31750 whole entry): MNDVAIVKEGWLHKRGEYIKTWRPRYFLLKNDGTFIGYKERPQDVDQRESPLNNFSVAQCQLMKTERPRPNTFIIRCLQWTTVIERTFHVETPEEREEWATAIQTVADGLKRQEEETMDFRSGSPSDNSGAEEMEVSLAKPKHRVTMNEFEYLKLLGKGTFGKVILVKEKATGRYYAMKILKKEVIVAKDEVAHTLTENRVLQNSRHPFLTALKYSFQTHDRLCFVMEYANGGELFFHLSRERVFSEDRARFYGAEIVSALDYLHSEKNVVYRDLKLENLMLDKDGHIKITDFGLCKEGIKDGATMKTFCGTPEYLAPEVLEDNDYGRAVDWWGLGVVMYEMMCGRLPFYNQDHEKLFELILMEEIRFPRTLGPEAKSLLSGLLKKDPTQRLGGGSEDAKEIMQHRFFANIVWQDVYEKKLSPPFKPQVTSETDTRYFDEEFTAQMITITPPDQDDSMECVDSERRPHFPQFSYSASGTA

Mus musculus [12] = organism: Mus musculus; assay: Inhibition of JNK-phosphorylation in mouse RAW264.7 cells at 5 to 10 ug/ml preincubated for 1 hr followed by LPS-stimulation for 1 hr by Western blot analysis; type: cell-based
Mus musculus [13] = organism: Mus musculus; assay: Inhibition of ERK-phosphorylation in mouse RAW264.7 cells at 5 to 10 ug/ml preincubated for 1 hr followed by LPS-stimulation for 1 hr by Western blot analysis; type: cell-based
[14] = biological target: MAP kinase p38 (Mus musculus) (UniProt P47811+O08911+Q9WUI1+Q9Z1B7); assay: Inhibition of p38-phosphorylation in mouse RAW264.7 cells at 5 to 10 ug/ml preincubated for 1 hr followed by LPS-stimulation for 1 hr by Western blot analysis; type: cell-based
[15] = biological target: Protein c-Fos (Mus musculus) (UniProt P01101); assay: Inhibition of c-fos-phosphorylation in mouse RAW264.7 cells preincubated for 1 hr followed by LPS-stimulation for 20 hrs by Western blot analysis; type: cell-based
Chain of Protein c-Fos (Mus musculus) (P01101 whole entry): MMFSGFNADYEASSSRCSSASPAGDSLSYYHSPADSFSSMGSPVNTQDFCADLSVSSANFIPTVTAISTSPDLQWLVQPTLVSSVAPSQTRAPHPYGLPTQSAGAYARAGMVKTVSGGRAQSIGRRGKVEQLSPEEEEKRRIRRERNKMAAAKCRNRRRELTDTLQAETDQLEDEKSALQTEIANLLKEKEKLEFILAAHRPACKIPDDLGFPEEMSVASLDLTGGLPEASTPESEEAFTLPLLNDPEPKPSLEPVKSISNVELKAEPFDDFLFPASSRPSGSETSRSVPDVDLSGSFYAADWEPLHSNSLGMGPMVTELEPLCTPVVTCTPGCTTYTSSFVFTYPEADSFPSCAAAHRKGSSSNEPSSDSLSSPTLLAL

[16] = biological target: Signal transducer and activator of transcription 3 (Mus musculus) (UniProt P42227); assay: Inhibition of STAT3 phosphorylation at Y705 residue in mouse RAW264.7 cells preincubated for 1 hr followed by LPS-stimulation for 20 hrs by Western blot analysis; type: cell-based
Chain of Signal transducer and activator of transcription 3 (Mus musculus) (P42227 whole entry): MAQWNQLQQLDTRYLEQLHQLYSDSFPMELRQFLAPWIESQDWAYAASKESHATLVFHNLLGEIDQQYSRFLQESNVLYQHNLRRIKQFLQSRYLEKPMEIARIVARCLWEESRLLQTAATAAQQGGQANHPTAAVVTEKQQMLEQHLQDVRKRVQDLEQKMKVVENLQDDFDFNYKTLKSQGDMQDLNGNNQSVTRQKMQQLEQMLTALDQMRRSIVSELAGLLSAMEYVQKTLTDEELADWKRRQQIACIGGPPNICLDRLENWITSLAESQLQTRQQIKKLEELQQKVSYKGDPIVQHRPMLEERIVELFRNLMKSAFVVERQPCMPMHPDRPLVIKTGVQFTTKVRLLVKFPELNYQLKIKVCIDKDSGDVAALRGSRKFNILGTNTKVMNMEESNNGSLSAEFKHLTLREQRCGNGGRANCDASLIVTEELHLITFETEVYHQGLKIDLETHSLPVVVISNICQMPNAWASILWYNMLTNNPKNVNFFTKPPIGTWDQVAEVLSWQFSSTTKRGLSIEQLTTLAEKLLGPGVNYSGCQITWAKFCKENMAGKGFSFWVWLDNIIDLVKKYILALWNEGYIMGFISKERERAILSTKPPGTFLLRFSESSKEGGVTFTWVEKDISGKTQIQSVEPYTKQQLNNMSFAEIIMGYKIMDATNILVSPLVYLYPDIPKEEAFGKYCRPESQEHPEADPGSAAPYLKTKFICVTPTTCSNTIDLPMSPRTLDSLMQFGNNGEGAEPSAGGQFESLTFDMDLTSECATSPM

[17] = biological target: Signal transducer and activator of transcription 3 (Mus musculus) (UniProt P42227); assay: Inhibition of STAT3 phosphorylation at S727 residue in mouse RAW264.7 cells preincubated for 1 hr followed by LPS-stimulation for 20 hrs by Western blot analysis; type: cell-based
RAW264.7 [18] = assay: Cytotoxicity against mouse RAW264.7 cells assessed as decrease in cell viability incubated for 20 hrs by EZ-cytox assay; type: cell-based; details: RAW264.7, 20 h

- inhibition [1]: Active
- inhibition [4]: Active
- inhibition [10]: Active
- inhibition [11]: Active
- inhibition [14]: inactive
- inhibition [15]: Dose-dependent effect
- inhibition [16]: Dose-dependent effect
- inhibition [17]: Dose-dependent effect
Compound: COc1cc2oc(-c3ccc(O)cc3)cc(=O)c2c(O)c1OC [CIRSIMARITIN]
- Activity (RAW264.7 [2]): Dose-dependent effect
- Activity (RAW264.7 [3]): Non-Toxic
- inhibition (RAW264.7 [5]): Dose-dependent effect
- inhibition (RAW264.7 [6]): Dose-dependent effect
- inhibition (RAW264.7 [7]): Active
- Activity (RAW264.7 [8]): Dose-dependent effect
- Activity (RAW264.7 [9]): Dose-dependent effect
- inhibition (Mus musculus [12]): inactive
- inhibition (Mus musculus [13]): inactive
- IC50 (RAW264.7 [18]): 111 µg/mL (≈ 353 µM)
